Data as given in PMC6615261, “Repurposing Azithromycin and Rifampicin Against Gram-Negative Pathogens by Combination With Peptidomimetics” (Frontiers in Cellular and Infection Microbiology, 2019).
Where two headings read alike, the source gives them in different places.

Assays:
[1] = test system: E. coli clinical isolates and reference strains; assay: MIC of fixed-ratio peptidomimetic 1-antibiotic combinations in clinical isolates and reference strains; format: cell-based, Escherichia coli; details: in combination with 0.5–1 μM peptidomimetic 1
Source text: (§1) Bacterial strains used in this study comprise MDR clinical isolates of E. coli ST131 (Cerquetti et al., [2010]) and K. pneumoniae ST258 (Jana et al., [2017]), and American type culture collection (ATCC) strains: ATCC 25922 (E. coli), ATCC 13883 (K. pneumoniae), and ATCC 27853 (P. aeruginosa). Additional clinical isolates of E. coli, K. pneumoniae, and P. aeruginosa resistant to β-lactams (including carbapenems and cephalosporins) were provided by Laurent Poirel, Université de Fribourg, Switzerland. The following growth media was routinely used for bacterial culturing: Luria-Burtani (LB), cation-adjusted Mueller-Hinton agar (MHA) and broth (MHB II). All assays were performed in cation-adjusted MHA or MHB II. Antibiotics were purchased from Sigma-Aldrich and the peptidomimetic collection (Table S1) was curated and provided by Henrik Franzyk. […]
(§2) Minimal inhibitory concentrations (MICs) of peptidomimetics, antibiotics and their combinations were determined by broth microdilution according to the Clinical Laboratory Standards Institute performance standards (Clinical and Laboratory Standards Institute, [2013]). […] Potentiation of additional antibiotics by peptidomimetics was determined by using commercial 96-well plates containing varied concentrations of standard antibiotics (COMPAN1F; Trek Diagnostic Systems Inc.). The peptidomimetics were added immediately prior to inoculation with pathogen, and then MICs were determined as above. The MICs of peptidomimetic/antibiotic combinations were determined according to the method above, and the concentration ratios were selected based upon checkerboard results with 2:1 and 1:4 ratio of peptidomimetic with rifampicin or azithromycin, respectively. Minimal bactericidal concentrations (MBCs) were determined by using growth-curve assay plates. […] Growth was recorded at 10 min intervals as optical density (OD) at 600 nm during 24 h. […]

K. pneumoniae ST258 [2] = details: K. pneumoniae ST258; growth-curve assay
Procedure: (§3) Minimal inhibitory concentrations (MICs) of peptidomimetics, antibiotics and their combinations were determined by broth microdilution according to the Clinical Laboratory Standards Institute performance standards (Clinical and Laboratory Standards Institute, [2013]). […] Since rifampicin and azithromycin mainly are used to treat infections with Gram-positive pathogens only CLSI clinical breakpoints were available for such bacteria. […] Potentiation of additional antibiotics by peptidomimetics was determined by using commercial 96-well plates containing varied concentrations of standard antibiotics (COMPAN1F; Trek Diagnostic Systems Inc.). The peptidomimetics were added immediately prior to inoculation with pathogen, and then MICs were determined as above. The MICs of peptidomimetic/antibiotic combinations were determined according to the method above, and the concentration ratios were selected based upon checkerboard results with 2:1 and 1:4 ratio of peptidomimetic with rifampicin or azithromycin, respectively. Minimal bactericidal concentrations (MBCs) were determined by using growth-curve assay plates. MIC plates were prepared as above, and then the plates were incubated at 37°C with continuous shaking. Growth was recorded at 10 min intervals as optical density (OD) at 600 nm during 24 h. At 24 h, for wells without growth, a sample was diluted 10-fold in sterile saline (0.9% sodium chloride) and plated onto MHA, following CLSI guidelines (Clinical and Laboratory Standards Institute, [1999]).

E. coli ST131 [3] = details: E. coli ST131; growth-curve assay
Procedure: as §3

P. aeruginosa ATTC 27853 = details: P. aeruginosa ATTC 27853; growth-curve assay
Procedure: as §3

[4] = test system: P. aeruginosa clinical isolates and reference strains; assay: MIC of fixed-ratio peptidomimetic 1-antibiotic combinations in clinical isolates and reference strains; format: cell-based, Pseudomonas aeruginosa; details: with 1–8 μM of 1
Source text: as §1, §2

P. aeruginosa ATCC 27853 [5] = test system: P. aeruginosa ATCC 27853
Procedure: (§4) The potential synergistic effects in peptidomimetic-antibiotic combinations were assessed by using a two-dimensional checkerboard assay (Garcia, [2010]). Briefly, twofold dilutions of peptide and antibiotic were prepared in MBH II media along the X- and Y-axis, respectively, in 96-well plates. The inoculum was added to the plates, and subsequently these were incubated for 18–20 h. All steps for inoculum preparation and broth microdilution were in accordance with the CLSI guidelines (Clinical and Laboratory Standards Institute, [2013]). The fractional inhibitory concentration index (FICI) was calculated as [MICA(A+B)/MICA(alone)] + [MICB(A+B)/MICB(alone)], where MICA(A+B) represents the MIC of antibiotic (A) in combination with peptidomimetic (B), while MICB(A+B) represents the MIC of peptidomimetic (B) in combination with antibiotic (A). MICA(alone) and MICB(alone) represent the MIC of each compound individually. FICI values of ≤0.5 were interpreted as synergy.

K. pneumoniae ST258 [6] = test system: K. pneumoniae ST258
Procedure: as §4

E. coli ST131 [7] = test system: E. coli ST131
Procedure: as §4

MDR E. coli ST131 = assay: Screening of peptidomimetic-antibiotic combinations (growth / growth inhibition); format: cell-based, Escherichia coli; set-up: key to Growth in combination with RIF / Growth in combination with AZM: Growth (+); growth inhibition (–)
Procedure: as §3

[8] = MTS/PMS cell viability assay; format: cell-based, mouse; details: mouse, NIH 3T3 fibroblasts, 1 h exposure, read-out: Cytotoxicity NIH 3T3 EC50 ± SD
Procedure: (§5) NIH 3T3 and HepG2 cells (both from ATCC, Manassas, VA, USA) were cultured in flat-bottomed 96-well MicroWell™ plates (NUNC, Roskilde, Denmark) at seeding densities of ~23,000 and ~22,000 cells/well, respectively, and then cultured for 22–24 h under standard culturing conditions (37°C, 5% CO2, humidified air) to reach 80–90% confluence. NIH 3T3 were cultured in Dulbecco's modified Eagle's medium (DMEM) supplemented with 10% (v/v) newborn-calf serum (NCS) (Gibco, Paisly, UK), while HepG2 were cultured in Eagle's minimum essential medium (EMEM) supplemented with 10% (v/v) fetal bovine serum (FBS, Gibco, Paisly, UK), sodium pyruvate (1 mM), and non-essential amino acids (1%, v/v). Both culturing media were further supplemented with penicillin (100 U/mL), streptomycin (100 μg/mL), and L-glutamine (2 mM).
(§6) Effect on cell viability was determined in NIH 3T3 fibroblasts and HepG2 hepatocytes by using the MTS/PMS assay measuring metabolic activity. Briefly, the adhered cells were washed with 37°C Hanks' balanced salt solution (HBSS from Sigma-Aldrich, St. Louis, MO, USA), containing 10 mM HEPES (AppliChem, Darmstadt, Germany), and adjusted to pH 7.4, and were then exposed for 1 h to 100 μL of test compound(s) dissolved in the appropriate culturing medium without serum for each cell line. After exposure the cells were washed with HBSS containing 10 mM HEPES (pH 7.4) and 100 μL of an MTS/PMS solution, consisting of 240 μg/mL MTS (Promega, Madison, WI, USA) and 2.4 μg/mL PMS (SigmaAldrich, Buchs, Switzerland) in HBSS, was added to the cells, which then were incubated for 1 h at 37°C with horizontal shaking under light protection. Absorbance was measured at 492 nm by using a POLARstar OPTIMA plate reader (BMG Labtech, Offenburg, Germany). The relative viability was calculated according to Equation (1) with absorbance values obtained after incubation of cells with test compound; incubation with SDS (0.2%, w/v in medium) defined 100% cell death (Abspos), while the absorbance of cells incubated with medium defined 0% cell death (Absneg).
(§7) (1) Relative viability(%)=(Abssample-Abspos)/(Absneg-Abspos)×100%
(§8) EC50 values were calculated by using GraphPad Prism 7 (GraphPad Software, La Jolla, CA, USA) via fitting of the relative cell viability to the concentration of the test compound by using Equation (2):
(§9) (2) Relative viability(%)= Top-Bottom/1+10^(LogIC50-Log[peptidomimetic]) ×Hill slope
(§10) With top and bottom representing the mean highest and lowest observed values, respectively. The Hill slope represents a factor for the steepness of the linear part of the curve. In order to prevent erroneous calculation, the top and bottom values were constrained to 100 and 0%, respectively. Data were collected from technical triplicates. The selectivity index was calculated as the average effect on cell viability (EC50 values for HepG2 and NIH 3T3 cells) divided by the MIC.

E. coli ST131 [9] = assay: MIC by broth microdilution; format: cell-based, Escherichia coli
Procedure: as §3

[10] = MTS/PMS cell viability assay; format: cell-based; details: human, HepG2 hepatocytes, 1 h exposure, read-out: Cytotoxicity HepG2 EC50 ± SD
Procedure: as §5, §6, §7, §8, §9, §10

K. pneumoniae ST258 [11] = assay: MIC by broth microdilution; format: cell-based, Klebsiella pneumoniae
Procedure: as §3

K. pneumoniae ST258 [12] = assay: Screening of peptidomimetic-antibiotic combinations (growth / growth inhibition); format: cell-based, Klebsiella pneumoniae; set-up: key to Growth in combination with RIF / Growth in combination with AZM: Growth (+); growth inhibition (–)
Procedure: as §3

NIH 3T3 and HepG2 cells = assay: Effect on viability of mammalian cells (both cell lines); format: cell-based, mouse and human
Procedure: as §5, §6, §7, §8, §9
With top and bottom representing the mean highest and lowest observed values, respectively. The Hill slope represents a factor for the steepness of the linear part of the curve. […] The selectivity index was calculated as the average effect on cell viability (EC50 values for HepG2 and NIH 3T3 cells) divided by the MIC.

P. aeruginosa ATCC 27853 [13] = assay: MIC by broth microdilution; format: cell-based, Pseudomonas aeruginosa
Procedure: as §3

[14] = P. aeruginosa ATCC 27853, checkerboard
[15] = 0.5 μM peptidomimetic + 0.5 μg/mL rifampicin
[16] = peptidomimetic 0.5 μM + azithromycin 1 μg/mL
[17] = peptidomimetic 0.5 μM + rifampicin 0.5 μg/mL
[18] = average of EC50 (HepG2, NIH 3T3) divided by MIC
[19] = MIC of azithromycin combined with the labelled peptidomimetic
[20] = MIC of rifampicin combined with the labelled peptidomimetic

## CC[C@H]1OC(=O)[C@H](C)[C@@H](O[C@H]2C[C@@](C)(OC)[C@@H](O)[C@H](C)O2)[C@H](C)[C@@H](O[C@@H]2O[C@H](C)C[C@H](N(C)C)[C@H]2O)[C@](C)(O)C[C@@H](C)CN(C)[C@H](C)[C@@H](O)[C@]1(C)O [Azithromycin, azithromycin]
[1]
  Antibiotic concentration to which most E. coli isolates proved susceptible in combination: 2 to 4 µg/mL
K. pneumoniae ST258 [2]
  MBC (antibiotic alone): >32 µg/mL
  MIC (antibiotic alone): >32 µg/mL
E. coli ST131 [3]
  MBC (antibiotic alone): >16 µg/mL
  MIC (antibiotic alone): 8 µg/mL
P. aeruginosa ATTC 27853
  MBC (antibiotic alone): >128 µg/mL
  MIC (antibiotic alone): >128 µg/mL
[4]
  MIC of antibiotic in combination, P. aeruginosa isolates (typical): 4 to 8 µg/mL
P. aeruginosa ATCC 27853 [5]; [14]
  Antibiotic MIC alone: >128 µg/mL
K. pneumoniae ST258 [6]; checkerboard
  Antibiotic MIC alone: 32 µg/mL
E. coli ST131 [7]; checkerboard
  Antibiotic MIC alone: 8 µg/mL

## C[C@@H](c1ccccc1)N(CCC(N)=O)C(=O)[C@H](CCCCNC(=N)N)NC(=O)CCN(C(=O)[C@H](CCCCN)NC(=O)CCN(C(=O)[C@H](CCCCNC(=N)N)NC(=O)CCN(C(=O)[C@H](CCCCN)NC(=O)CCN(C(=O)[C@H](CCCCNC(=N)N)NC(=O)CCN(C(=O)[C@H](CCCCN)NC(=O)CNCCCNCCCCNCCCN)[C@@H](C)c1ccccc1)[C@@H](C)c1ccccc1)[C@@H](C)c1ccccc1)[C@@H](C)c1ccccc1)[C@@H](C)c1ccccc1 [Peptidomimetic 26, Spermine-(Lys-βNspe-hArg-βNspe)3-NH2]
MDR E. coli ST131; [15]
  Screening result with rifampicin: inhibit growth
MDR E. coli ST131; [16]
  Growth in combination with AZM: –
MDR E. coli ST131; [17]
  Growth in combination with RIF: –
[8]
  EC50 at 1 h: 53.2 ± 2.94 µM
E. coli ST131 [9]; [18]
  Selectivity Index (SI) E. coli ST131: (56)
E. coli ST131 [9]; peptidomimetic alone
  MIC E. coli ST131: 1 µM
[10]
  EC50 at 1 h: 59.6 ± 0.71 µM
K. pneumoniae ST258 [11]; [18]
  Selectivity Index (SI) K. pneumoniae ST258: (7)
K. pneumoniae ST258 [11]; peptidomimetic alone
  MIC K. pneumoniae ST258: 8 µM
K. pneumoniae ST258 [12]; [15]
  Screening result with rifampicin: inhibit growth
K. pneumoniae ST258 [12]; [16]
  Growth in combination with AZM: +
K. pneumoniae ST258 [12]; [17]
  Growth in combination with RIF: –
NIH 3T3 and HepG2 cells
  EC50: 50 to 60 µM
P. aeruginosa ATCC 27853 [13]; [18]
  Selectivity Index (SI) P. aeruginosa ATCC 27853: (28)
P. aeruginosa ATCC 27853 [13]; peptidomimetic alone
  MIC P. aeruginosa ATCC 27853: 2 µM
P. aeruginosa ATCC 27853 [5]; P. aeruginosa ATCC 27853, MIC of azithromycin combined with the labelled peptidomimetic
  Antibiotic MIC in combination (AZM): 0.5 µg/mL
P. aeruginosa ATCC 27853 [5]; P. aeruginosa ATCC 27853, MIC of rifampicin combined with the labelled peptidomimetic
  Antibiotic MIC in combination (RIF): 0.06 µg/mL
P. aeruginosa ATCC 27853 [5]; [14]
  Peptidomimetic MIC alone: 2 µM
P. aeruginosa ATCC 27853 [5]; P. aeruginosa ATCC 27853, combined with AZM
  Peptidomimetic MIC in combination: 1 µM
P. aeruginosa ATCC 27853 [5]; P. aeruginosa ATCC 27853, combined with RIF
  Peptidomimetic MIC in combination: 0.5 µM
P. aeruginosa ATCC 27853 [5]; P. aeruginosa, sub-MIC concentrations of peptidomimetic
  Reduction of the MIC of azithromycin: 32- to 512 fold
K. pneumoniae ST258 [6]; MIC of CLI combined with the labelled peptidomimetic
  Antibiotic MIC in combination (CLI): 4 µg/mL
K. pneumoniae ST258 [6]; [19]
  Antibiotic MIC in combination (AZM): 8 µg/mL
K. pneumoniae ST258 [6]; [20]
  Antibiotic MIC in combination (RIF): 0.06 µg/mL
K. pneumoniae ST258 [6]; checkerboard
  Peptidomimetic MIC alone: 8 µM
K. pneumoniae ST258 [6]; combined with AZM
  Peptidomimetic MIC in combination: 0.5 µM
K. pneumoniae ST258 [6]; combined with CLI
  Peptidomimetic MIC in combination: 0.5 µM
K. pneumoniae ST258 [6]; combined with RIF
  Peptidomimetic MIC in combination: 0.5 µM
E. coli ST131 [7]; [19]
  Antibiotic MIC in combination (AZM): 1 µg/mL
E. coli ST131 [7]; [20]
  Antibiotic MIC in combination (RIF): 0.5 µg/mL
E. coli ST131 [7]; checkerboard
  Peptidomimetic MIC alone: 1 µM
E. coli ST131 [7]; combined with AZM
  Peptidomimetic MIC in combination: 0.25 µM
E. coli ST131 [7]; combined with RIF
  Peptidomimetic MIC in combination: 0.25 µM
